According to patent publication US10800752B2, “Substituted naphtho[2,3-b]furans as water-soluble prodrugs for preventing and/or treating cancer” (BOSTON BIOMEDICAL, INC., priority 2015, dated 2020):

Tests used:
[1] = Evaluation of a conversion rate to 2-acetylnaphtho[2,3-b]furan-4,9-dione in human plasma; type: in vitro ADME; settings: 1 umol/L, 37° C.
Method in brief: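 Compounds at 1 umol/L incubated at 37° C in human plasma, CD1 mouse plasma or pH 7.4 phosphate buffer, sampled up to 120 minutes. After acidified acetonitrile protein removal, parent loss and conversion to 2-acetylnaphtho[2,3-b]furan-4,9-dione measured by LC-MS (ESI positive).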

[2] = Evaluation of a conversion rate to 2-acetylnaphtho[2,3-b]furan-4,9-dione in CD1 mouse plasma; type: in vitro ADME; settings: CD1 mouse plasma, 1 umol/L, 37° C.
Method in brief: (§1)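 Compounds at 1 umol/L were incubated at 37° C in human plasma, CD1 mouse plasma or pH 7.4 phosphate buffer, sampled up to 120 minutes, acid/acetonitrile-deproteinised and analysed by LC-MS (ESI positive). Conversion (%) derived from the peak area ratio of the active form to phenytoin internal standard.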

[3] = Evaluation of a conversion rate to 2-acetylnaphtho[2,3-b]furan-4,9-dione in pH 7.4 phosphate buffer solution; type: physicochemical; settings: 1 umol/L, 37° C.
Method in brief: as §1

Solution stability test = type: physicochemical; settings: for % Residual ratio: 25 umol/L
Description: For Example 6, Example 11, and Example 22, the stability in each pH was measured. Test compounds at a concentration of 25 umol/L in respective buffer solutions prepared at pH 2.0, 3.0, 5.0, 7.4, and 9.0 were allowed to stand at 25° C. After 0, 3, 6, 9, 12, and 24 hours, they were measured with HPLC.
The buffer solutions used at respective pHs are as described below. pH 2.0: 50 mmol/L glycine buffer solution pH 3.0: 50 mmol/L citrate buffer solution pH 5.0: 50 mmol/L citrate buffer solution pH 7.4: 50 mmol/L phosphate buffer solution pH 9.0: 50 mmol/L glycine buffer solution
The measurement condition of HPLC is as described below.
Column temperature: 40° C.
Mobile phase: A: 0.1% trifluoroacetic acid-containing water

Solubility test = settings: 50 mmol/L glycine buffer solution (pH 2.0), room temperature, 24 hours shaking
Description: A water-soluble prodrug was added into 50 mmol/L glycine buffer solution (pH 2.0). After shaking at room temperature for 24 hours, the mixture was filtered through a membrane filter, and then the filtrate was measured with HPLC.
The measurement condition of HPLC is as described below. HPLC condition column: Acquity UPLC BEH C18, 1.7 um, 50×2.1 mm

[4] = Pharmacokinetics test, intravenous administration; settings: for Plasma Compound Concentration: Activated form 1 in plasma, 9.6 mg/kg (i.v.)
Description: For water-soluble prodrugs described in the EXAMPLES, the concentration of 2-acetylnaphtho[2,3-b]furan-4,9-dione (Activated form 1) in plasma was measured. Animal species, an administration method, a method of making standard solutions, and a method of measuring the concentration in plasma are as described below.
Animal: Seven-week-aged male CD1 (ICR) mice were used as an experimental animal.
Administration method: A test substance was weighed, and then dissolved in 50 mmol/L glycine buffered saline (pH 2.0) to produce an administration solution. The body weight of a mouse was measured, and the prepared administration solution was intravenously administered.
Blood collecting method: Heparin was added to a blood-collecting vessel, and blood was collected from a mouse. To the obtained blood, 46% of Citric acid was added in 1% volume. It was then centrifuged to obtain plasma. To the collected plasma, 1 mol/L HCl was added in 10% volume to produce a plasma sample. A sample obtained by adding 10% volume of 1 mol/L HCl to blank plasma was used as a blank sample.
Making of a standard solution: One mg of a test sample was weighed, and dissolved in 10 mL of acetonitrile using a measuring flask to make a standard solution of 100 ug/mL.
Measurement of the concentration in plasma: One hundred ug/mL of the standard solution was diluted in 50% acetonitrile solution to make calibration curve samples of target concentrations. Twenty uL of a blank sample was added to 18 uL of the calibration curve sample to make a plasma calibration curve sample. Eighteen uL of 50% acetonitrile solution was added to 20 uL of the administered plasma sample to make a sample for plasma analysis. One hundred uL of acetonitrile (containing 1% volume of 10 mol/L HCl) containing an internal standard was added to the plasma calibration curve sample and the sample for plasma analysis, respectively. It should be noted that phenytoin was used as the internal standard and its concentration was prepared in 100 nmol/L. 10 uL of each sample was analyzed with LC-MS. A calibration curve was made from a value (peak ratio) of the peak area of a test substance in MS divided by the peak area of the internal standard, and the concentrations of plasma calibration curve samples. The concentration in a sample was calculated from the peak ratio of each sample and the calibration curve.

Compound: CC(=O)c1cc2c(OC(=O)NC[C@H](N)C(=O)O)c3ccccc3c(OC(=O)NC[C@H](N)C(=O)O)c2o1.Cl.Cl [Example 6]
- % Measurement value of test compound (decrease rate) ([1]; Human plasma, incubation time 120 min): 0%
- % Measurement value of test compound (decrease rate) ([1]; human plasma, incubation time 0 min): 100%
- % Measurement value of test compound (decrease rate) ([1]; human plasma, incubation time 5 min): 0%
- % Measurement value of test compound (decrease rate) ([1]; human plasma, incubation time 10 min): 0%
- % Measurement value of test compound (decrease rate) ([1]; human plasma, incubation time 30 min): 0%
- % Measurement value of test compound (decrease rate) ([1]; human plasma, incubation time 60 min): 0%
- % Measurement value of test compound (decrease rate) ([2]; incubation time 0 min): 100%
- % Measurement value of test compound (decrease rate) ([2]; incubation time 5 min): 0%
- % Measurement value of test compound (decrease rate) ([2]; incubation time 10 min): 0%
- % Measurement value of test compound (decrease rate) ([2]; incubation time 30 min): 0%
- % Measurement value of test compound (decrease rate) ([2]; incubation time 60 min): 0%
- % Measurement value of test compound (decrease rate) ([2]; incubation time 120 min): 0%
- % Measurement value of test compound (decrease rate) ([3]; Phosphate buffer solution (pH 7.4), incubation time 120 min): 0%
- % Measurement value of test compound (decrease rate) ([3]; phosphate buffer solution (pH 7.4), incubation time 0 min): 100%
- % Measurement value of test compound (decrease rate) ([3]; phosphate buffer solution (pH 7.4), incubation time 5 min): 0%
- % Measurement value of test compound (decrease rate) ([3]; phosphate buffer solution (pH 7.4), incubation time 10 min): 0%
- % Measurement value of test compound (decrease rate) ([3]; phosphate buffer solution (pH 7.4), incubation time 30 min): 0%
- % Measurement value of test compound (decrease rate) ([3]; phosphate buffer solution (pH 7.4), incubation time 60 min): 0%
- stability in solution (in words) (Solution stability test; pH 2.0, 25° C.): very stable
- % Residual ratio (Solution stability test; pH 2.0, 25° C., 0 hr): 100%
- % Residual ratio (Solution stability test; pH 2.0, 25° C., 3 hr): 100%
- % Residual ratio (Solution stability test; pH 2.0, 25° C., 6 hr): 100%
- % Residual ratio (Solution stability test; pH 2.0, 25° C., 9 hr): 100%
- % Residual ratio (Solution stability test; pH 2.0, 25° C., 12 hr): 100%
- % Residual ratio (Solution stability test; pH 2.0, 25° C., 24 hr): 99.8%
- stability in solution (in words) (Solution stability test; pH 3.0, 25° C.): sufficient stability
- % Residual ratio (Solution stability test; pH 3.0, 25° C., 0 hr): 100%
- % Residual ratio (Solution stability test; pH 3.0, 25° C., 3 hr): 99.0%
- % Residual ratio (Solution stability test; pH 3.0, 25° C., 6 hr): 98.2%
- % Residual ratio (Solution stability test; pH 3.0, 25° C., 9 hr): 97.5%
- % Residual ratio (Solution stability test; pH 3.0, 25° C., 12 hr): 96.6%
- % Residual ratio (Solution stability test; pH 3.0, 25° C., 24 hr): 93.6%
- % Residual ratio (Solution stability test; pH 5.0, 25° C., 0 hr): 100%
- % Residual ratio (Solution stability test; pH 5.0, 25° C., 3 hr): 27.3%
- % Residual ratio (Solution stability test; pH 5.0, 25° C., 6 hr): 10.8%
- % Residual ratio (Solution stability test; pH 5.0, 25° C., 9 hr): 3.6%
- % Residual ratio (Solution stability test; pH 5.0, 25° C., 12 hr): 0%
- % Residual ratio (Solution stability test; pH 5.0, 25° C., 24 hr): 0%
- % Residual ratio (Solution stability test; pH 7.4, 25° C., 0 hr): 100%
- % Residual ratio (Solution stability test; pH 7.4, 25° C., 3 hr): 0%
- % Residual ratio (Solution stability test; pH 7.4, 25° C., 6 hr): 0%
- % Residual ratio (Solution stability test; pH 7.4, 25° C., 9 hr): 0%
- % Residual ratio (Solution stability test; pH 7.4, 25° C., 12 hr): 0%
- % Residual ratio (Solution stability test; pH 7.4, 25° C., 24 hr): 0%
- % Residual ratio (Solution stability test; pH 9.0, 25° C., 0 hr): 100%
- % Residual ratio (Solution stability test; pH 9.0, 25° C., 3 hr): 0%
- % Residual ratio (Solution stability test; pH 9.0, 25° C., 6 hr): 0%
- % Residual ratio (Solution stability test; pH 9.0, 25° C., 9 hr): 0%
- % Residual ratio (Solution stability test; pH 9.0, 25° C., 12 hr): 0%
- % Residual ratio (Solution stability test; pH 9.0, 25° C., 24 hr): 0%
- Solubility in pH 2.0 buffer solution (Solubility test): 2.8 mg/mL
- Plasma Compound Concentration ([4]; 0.083 hr, animal 1): 4950 nM
- Plasma Compound Concentration ([4]; 0.083 hr, animal 2): 5870 nM
- Plasma Compound Concentration ([4]; 0.083 hr, animal 3): 5790 nM
- Plasma Compound Concentration ([4]; 0.083 hr, mean): 5540 nM
- Plasma Compound Concentration ([4]; 0.5 hr, animal 1): 1170 nM
- Plasma Compound Concentration ([4]; 0.5 hr, animal 2): 1070 nM
- Plasma Compound Concentration ([4]; 0.5 hr, animal 3): 1660 nM
- Plasma Compound Concentration ([4]; 0.5 hr, mean): 1300 nM
- Plasma Compound Concentration ([4]; 1.0 hr, animal 1): 530 nM
- Plasma Compound Concentration ([4]; 1.0 hr, animal 2): 280 nM
- Plasma Compound Concentration ([4]; 1.0 hr, animal 3): 380 nM
- Plasma Compound Concentration ([4]; 1.0 hr, mean): 400 nM
- Plasma Compound Concentration ([4]; 2.0 hr, animal 1): 250 nM
- Plasma Compound Concentration ([4]; 2.0 hr, animal 2): 500 nM
- Plasma Compound Concentration ([4]; 2.0 hr, animal 3): 410 nM
- Plasma Compound Concentration ([4]; 2.0 hr, mean): 390 nM
- production of 2-acetylnaphtho[2,3-b]furan-4,9-dione (Activated form 1) (in words) ([4]; intravenously administered to mice): rapidly produced
